Results from patent US20090163451A1, “METHODS FOR TREATING VISCERAL PAIN” (priority 2007, published 2009).
“Also recorded” adds a separate entry of the source.

What was measured:
[1] = tested on: rats with experimental colonic hypersensitivity (butyrate), referred lumbar hypersensitivity; assay: colonic hypersensitivity model (intracolonic sodium butyrate): referred lumbar hypersensitivity, von Frey mechanical threshold; type: in vivo, Sprague Dawley rats; conditions: butyrate rats; for effect of concurrent RVM antagonist on the effect of RVM sumatriptan: sumatriptan 10 μg RVM; for effect of concurrent systemic (IP) antagonist on the effect of systemic sumatriptan: isamoltane 4 mg/kg IP or BRL15722 0.3 mg/kg IP
Experimental: (§1) Adult male Sprague Dawley rats (Harlan, Indianapolis, Ind.), weighing 150-200 g, were maintained in a climate-controlled room with ad lib food and water on a 12 hour/12 hour light/dark cycle (lights on at 07:00 hours). All procedures followed the policies of the International Association for the Study of Pain and the NIH guidelines for the handling and use of laboratory animals. Studies were approved by the University of Arizona IACUC.
(§2) Dibutyltin dichloride (DBTC) was obtained from Sigma-Aldrich (Milwaukee, Wis.) and dissolved in 100% ethanol to a concentration of 8 mg/kg (Sparmann et al., Gastroenterology. 112:1664-1672 (1997))). Sumatriptan succinate was obtained from Toronto Research Chemicals (ON, Canada) and dissolved in saline to 1, 3, and 10 μg for RVM microinjections and 100, 200, and 300 μg/kg for systemic injections (Kayser et al., Br J Pharmacol. 137:1287-1297 (2002)). The 5HT1B antagonist isamoltane and the 5HT1D antagonist BRL15722 were obtained from Tocris (Elllisville, Mo.). Isamoltane was dissolved in saline to a concentration of 3 μg for RVM microinjection and to a concentration of 4 mg/kg (Ottani et al., Eur J Pharmacol. 497:181-186 (2004)) for system application. BRL15722 was dissolved in 10% DMSO to a concentration of 3 μg for RVM microinjection and to a concentration of 0.3 mg/kg (Ottani et al., Eur J Pharmacol. 497:181-186 (2004)) for systemic application.
(§3) For the experiments involving microinjection of drugs into the RVM, rats underwent surgeries to implant RVM cannulae. After five days of recovery, rats received either intravenous injection of DBTC to induce pancreatitis, or intracolonic injection of sodium butyrate to induce colonic hypersensitivity. Animals were monitored for development of visceral hypersensitivity on the subsequent days. On day six after either induction of pancreatitis or colonic hypersensitivity, animals underwent baseline behavioral measurements. Sumatriptan was microinjected into the RVM at different doses (separate groups of rats for each dose) and animals were monitored behaviorally for two h after sumatriptan application in the RVM. For experiments investigating the effects of serotonin antagonists, the drugs were microinjected concurrently with injection of sumatriptan and animals were monitored for the subsequent two h. Separate groups of animals were microinjected with the antagonists alone to control for possible effects of the drugs by themselves.
(§4) For the experiments involving systemic drug administration, rats received intravenous injection of DBTC to induce pancreatitis or intracolonic injection of sodium butyrate to induce colonic hypersensitivity. On day six after either induction of pancreatitis of colonic hypersensitivity, animals underwent baseline behavioral measurements. Sumatriptan was injected intraperitoneally at different doses (separate groups of rats for each dose) and the animals were monitored behaviorally every 20 min for two h after injection. For experiments investigating the effects of serotonin antagonists, the drugs were injected intraperitoneally immediately following the injection of sumatriptan (separate groups for each respective antagonist). Separate groups of animals were injected with the antagonists alone. Additionally, separate groups of animals were injected with sumatriptan systemically and microinjected with the antagonists in the RVM to determine if the RVM is a site of action for systemically applied sumatriptan. The microinjection of antagonists into the RVM was done immediately following the systemic injection of sumatriptan. All animals were tested for behavioral signs of hypersensitivity every 20 min for two h after the end of the injections.
Colonic hypersensitivity was induced by enemas of a sodium butyrate solution ([…]) twice daily for 3 days (Bourdu et al., Gastroenterology. 128:1996-2008 (2005)). […]

[2] = tested on: rats with experimental pancreatitis (DBTC), referred abdominal hypersensitivity; assay: experimental pancreatitis model (IV DBTC): referred abdominal hypersensitivity, withdrawals to von Frey filament; type: in vivo, Sprague Dawley rats; conditions: DBTC rats; for effect of concurrent RVM antagonist on the effect of RVM sumatriptan: sumatriptan 10 μg RVM; for effect of concurrent RVM antagonist on the effect of RVM sumatriptan / effect of RVM antagonist on the effect of systemic sumatriptan: antagonist 3 μg RVM
Experimental: as §1, §2
as §3, with “Sumatriptan was microinjected into the RVM at different doses (separate groups of rats for each dose) and animals were monitored behaviorally for two h after sumatriptan application in the RVM.” left out
as §4, with “Sumatriptan was injected intraperitoneally at different doses (separate groups of rats for each dose) and the animals were monitored behaviorally every 20 min for two h after injection. For experiments investigating the effects of serotonin antagonists, the drugs were injected intraperitoneally immediately following the injection of sumatriptan (separate groups for each respective antagonist).” left out
Pancreatitis was produced by a tail vein injection of dibutyltin dichloride (DBTC, Aldrich, Milwaukee, Wis., 0.25 cc) dissolved in 100% ethanol at a dose of 8 mg/kg under isofluorane anesthesia (2-3 liters/min, 4.0%/vol until anesthetized, then 2.5%/vol throughout the procedure; Vera-Portocarrero et al., Gastroenterology. 130:2155-2164 (2006)). Control animals were injected with the vehicle solution only (100% ethanol, 0.25 mL).
Referred abdominal hypersensitivity in the pancreatitis model was quantified by measuring the number of withdrawal events evoked by application of a calibrated von Frey filament (determined by either abdominal withdrawal, licking of the abdominal area, or whole body withdrawal). Rats were placed inside Plexiglas boxes on an elevated fine fiberglass screen mesh and acclimated for 30 minutes before testing. […]

[3] = tested on: spinal neurons, colorectal distention (CRD); conditions: microinjection into the RVM (Zhuo et al.); cited from earlier work
[4] = tested on: referred visceral hypersensitivity induced by pancreatic inflammation; conditions: microinjection into the RVM (Vera-Portocarrero et al. 2006); cited from earlier work
[5] = sumatriptan 300 μg/kg IP, listed as BRL1 5722

Structure (SMILES)	effect of concurrent RVM antagonist on the effect of RVM sumatriptan ([1]; antagonist 3 μg RVM)	effect of concurrent RVM antagonist on the effect of RVM sumatriptan ([1]; antagonist 3 μg RVM, listed as BRL1 5722)	effect of RVM antagonist on the effect of systemic sumatriptan ([1]; sumatriptan 300 μg/kg IP, antagonist 3 μg RVM)	effect of concurrent systemic (IP) antagonist on the effect of systemic sumatriptan ([1]; sumatriptan 300 μg/kg IP)	effect of concurrent systemic (IP) antagonist on the effect of systemic sumatriptan [1, 5]	effect of concurrent RVM antagonist on the effect of RVM sumatriptan [2]	effect of concurrent RVM antagonist on the effect of RVM sumatriptan ([2]; listed as BRL1 5722)	effect of RVM antagonist on the effect of systemic sumatriptan ([2]; sumatriptan 300 μg/kg IP)	effect of RVM antagonist on the effect of systemic sumatriptan [2, 5]	effect of concurrent systemic (IP) antagonist on the effect of systemic sumatriptan ([2]; sumatriptan 300 μg/kg IP, isamoltane 4 mg/kg IP or BRL15722 0.3 mg/kg IP)	spontaneous activity and responses of spinal neurons to colorectal distention [3]	referred visceral hypersensitivity induced by pancreatic inflammation [4]
OC(CN1CCN(c2cccc(Cl)c2)CC1)C(c1ccccc1)c1ccccc1 (stereo not drawn) [BRL15722]	did not block the effect of RVM sumatriptan	did not have any effect	failed to antagonize the effects of systemic sumatriptan; also recorded: did not block the effect of systemic sumatriptan	blocked the effect of systemic sumatriptan	reduced the effects of systemic sumatriptan	did not block the effect of RVM sumatriptan	did not have any effect	did not block the effect of sumatriptan	failed to antagonize the effects of systemic sumatriptan	reduced the effects of systemic sumatriptan; also recorded: blocked the effect of sumatriptan		
CCN(CC)CC(=O)Nc1c(C)cccc1C [lidocaine]											reduced spontaneous activity and responses of spinal neurons to colorectal distention; also recorded: reduced spontaneous activity and responses of spinal neurons to CRD	attenuated referred visceral hypersensitivity
